Assay results from PubChem BioAssay AID1918993 (Molecular Pharmacology Branch, DTP, NCI, 2023).

Test system: 233499-124-R-J3-PDC complex spheroid growth
Assay: Anticancer human tumor 233499-124-R-J3-PDC patient-derived colon adenocarcinoma cell line growth inhibition [AhR]
Details: for viability, T/C: stronger effect = lower value
Summary of the method: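 Agents were dosed in half-log steps down from roughly clinical Cmax, or from 10 microM where Cmax was unknown, alone and with AhR antagonists. Read-out: percent test/control growth of tumor spheroids containing HUVEC and MSC stromal cells.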

[1] = curve of first compound, second compound 0.1 µM
[2] = curve of first compound, second compound 0.316 µM
[3] = curve of first compound, second compound 1 µM
[4] = curve of first compound, second compound 3.16 µM
[5] = curve of first compound, second compound 10 µM
[6] = second compound 0.1 µM, first compound 0.0316 µM
[7] = second compound 0.1 µM, first compound 0.1 µM
[8] = second compound 0.1 µM, first compound 0.316 µM
[9] = second compound 0.1 µM, first compound 1 µM
[10] = second compound 0.1 µM, first compound 3.16 µM
[11] = second compound 0.1 µM, first compound 10 µM
[12] = second compound 0.316 µM, first compound 0.0316 µM
[13] = second compound 0.316 µM, first compound 0.1 µM
[14] = second compound 0.316 µM, first compound 0.316 µM
[15] = second compound 0.316 µM, first compound 1 µM
[16] = second compound 0.316 µM, first compound 3.16 µM
[17] = second compound 0.316 µM, first compound 10 µM
[18] = second compound 1 µM, first compound 0.0316 µM
[19] = second compound 1 µM, first compound 0.1 µM
[20] = second compound 1 µM, first compound 0.316 µM
[21] = second compound 1 µM, first compound 1 µM
[22] = second compound 1 µM, first compound 3.16 µM
[23] = second compound 1 µM, first compound 10 µM
[24] = second compound 3.16 µM, first compound 0.0316 µM
[25] = second compound 3.16 µM, first compound 0.1 µM
[26] = second compound 3.16 µM, first compound 0.316 µM
[27] = second compound 3.16 µM, first compound 1 µM
[28] = second compound 3.16 µM, first compound 3.16 µM
[29] = second compound 3.16 µM, first compound 10 µM
[30] = second compound 10 µM, first compound 0.0316 µM
[31] = second compound 10 µM, first compound 0.1 µM
[32] = second compound 10 µM, first compound 0.316 µM
[33] = second compound 10 µM, first compound 1 µM
[34] = second compound 10 µM, first compound 3.16 µM
[35] = second compound 10 µM, first compound 10 µM
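Further: spheroids exposed to agents for seven days before reading.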

For `O=C(c1cc(Cc2n[nH]c(=O)c3ccccc23)ccc1F)N1CCN(C(=O)C2CC2)CC1` + CC(CO)NC(=O)c1cc(-c2ccc(Cl)cc2)nn(-c2cnn(C)c2)c1=O, the IC50 [1] was > 10000 nM, the IC50 [2] was > 10000 nM and the IC50 [3] was > 10000 nM. For the same molecule, the IC50 [4] was > 10000 nM, the IC50 [5] was > 10000 nM and the viability, T/C [6] was 92.2%. The viability, T/C [7] was 112%, the viability, T/C [8] was 102% and the viability, T/C [9] was 103%. For the same molecule, the viability, T/C [10] was 97.6%, the viability, T/C [11] was 103% and the viability, T/C [12] was 99.9%. For the same molecule, the viability, T/C [13] was 92.2%, the viability, T/C [14] was 95.1% and the viability, T/C [15] was 102%. It also gave a viability, T/C [16] of 91.2%, a viability, T/C [17] of 104% and a viability, T/C [18] of 91.1%. The viability, T/C [19] was 98.9%, the viability, T/C [20] was 102% and the viability, T/C [21] was 101%. The viability, T/C [22] was 89.2%, the viability, T/C [23] was 109% and the viability, T/C [24] was 100%. It also gave a viability, T/C [25] of 84%, a viability, T/C [26] of 105% and a viability, T/C [27] of 87.6%. The viability, T/C [28] was 94.9%, the viability, T/C [29] was 89.7% and the viability, T/C [30] was 90.1%. For the same molecule, the viability, T/C [31] was 90%, the viability, T/C [32] was 80.8% and the viability, T/C [33] was 85%. The viability, T/C [34] was 85.5% and the viability, T/C [35] was 67.5%.

Work on `Nc1ccn(C2OC(CO)C(O)C2(F)F)c(=O)n1` (configuration not stated) + CC(CO)NC(=O)c1cc(-c2ccc(Cl)cc2)nn(-c2cnn(C)c2)c1=O yielded an IC50 [1] of 136 nM, an IC50 [2] of 113 nM and an IC50 [3] of 149 nM. The IC50 [4] was 202 nM, the IC50 [5] was 130 nM and the viability, T/C [6] was 58.7%. For the same molecule, the viability, T/C [7] was 58.9%, the viability, T/C [8] was 18.6% and the viability, T/C [9] was 30.1%. For the same molecule, the viability, T/C [10] was 24.2%, the viability, T/C [11] was 29.7% and the viability, T/C [12] was 50%. For the same molecule, the viability, T/C [13] was 54%, the viability, T/C [14] was 33.6% and the viability, T/C [15] was 35%. It also gave a viability, T/C [16] of 29.3%, a viability, T/C [17] of 35.9% and a viability, T/C [18] of 61%. It also gave a viability, T/C [19] of 57.8%, a viability, T/C [20] of 35.3% and a viability, T/C [21] of 37.7%. The viability, T/C [22] was 28.4%, the viability, T/C [23] was 36.1% and the viability, T/C [24] was 65%. For the same molecule, the viability, T/C [25] was 69.7%, the viability, T/C [26] was 38.9% and the viability, T/C [27] was 31.4%. It also gave a viability, T/C [28] of 37.9%, a viability, T/C [29] of 42.4% and a viability, T/C [30] of 60.6%. The viability, T/C [31] was 54.1%, the viability, T/C [32] was 32.1% and the viability, T/C [33] was 31.3%. The viability, T/C [34] was 51.9% and the viability, T/C [35] was 30.1%.

`COc1cc(C2c3cc4c(cc3C(OC3OC5COC(C)OC5C(O)C3O)C3COC(=O)C23)OCO4)cc(OC)c1O` (configuration not stated) + Cc1ccccc1N=Nc1ccc(NC(=O)c2ccnn2C)c(C)c1 was tested, and the IC50 [1] was > 10000 nM, the IC50 [2] was > 10000 nM and the IC50 [3] was > 10000 nM. For the same molecule, the IC50 [4] was > 10000 nM, the IC50 [5] was > 10000 nM and the viability, T/C [6] was 104%. The viability, T/C [7] was 101%, the viability, T/C [8] was 96% and the viability, T/C [9] was 101%. It also gave a viability, T/C [10] of 95.7%, a viability, T/C [11] of 89.7% and a viability, T/C [12] of 99.7%. For the same molecule, the viability, T/C [13] was 84.7%, the viability, T/C [14] was 107% and the viability, T/C [15] was 116%. For the same molecule, the viability, T/C [16] was 114%, the viability, T/C [17] was 105% and the viability, T/C [18] was 95.9%. For the same molecule, the viability, T/C [19] was 105%, the viability, T/C [20] was 98.7% and the viability, T/C [21] was 88.9%. The viability, T/C [22] was 99.1%, the viability, T/C [23] was 109% and the viability, T/C [24] was 93.4%. It also gave a viability, T/C [25] of 97.5%, a viability, T/C [26] of 93.7% and a viability, T/C [27] of 108%. For the same molecule, the viability, T/C [28] was 107%, the viability, T/C [29] was 114% and the viability, T/C [30] was 106%. It also gave a viability, T/C [31] of 102%, a viability, T/C [32] of 107% and a viability, T/C [33] of 128%. The viability, T/C [34] was 106% and the viability, T/C [35] was 99.4%.

With `CC(CO)NC(=O)c1cc(-c2ccc(Cl)cc2)nn(-c2cnn(C)c2)c1=O` (configuration not stated) the viability, T/C (compound 0.316 µM) was 94.2% [middle of 21 runs], the viability, T/C (compound 3.16 µM) was 91.3% [middle of 19 runs] and the IC50 (compound alone, run of 07/12/2022) was > 10000 nM.

`Cc1cncc(-c2nc(NCCc3c[nH]c4ccccc34)c3ncn(C(C)C)c3n2)c1` was tested, and the viability, T/C (compound 0.1 µM) was 96.2% [middle of 20 runs], the viability, T/C (compound 0.316 µM) was 86.2% [middle of 19 runs] and the viability, T/C (compound 1 µM) was 78.4% [middle of 20 runs]. For the same molecule, the IC50 (compound alone, run of 07/18/2022) was 4.98 µM [middle of 23 runs].

With `CC(C)CC(NC(=O)C(Cc1ccccc1)NC(=O)c1cnccn1)B(O)O` (configuration not stated) + CC(CO)NC(=O)c1cc(-c2ccc(Cl)cc2)nn(-c2cnn(C)c2)c1=O the IC50 [1] was 8.47 nM, the IC50 [2] was 8.01 nM and the IC50 [3] was 6.87 nM. The IC50 [4] was 6.12 nM, the IC50 [5] was 4.96 nM and the viability, T/C (second compound 0.1 µM, first compound 0.000949 µM) was 92.4%. For the same molecule, the viability, T/C (second compound 0.1 µM, first compound 0.003 µM) was 102%, the viability, T/C (second compound 0.1 µM, first compound 0.00949 µM) was 44.9% and the viability, T/C (second compound 0.1 µM, first compound 0.03 µM) was 0.09%. The viability, T/C (second compound 0.1 µM, first compound 0.0949 µM) was 0.09%, the viability, T/C (second compound 0.1 µM, first compound 0.3 µM) was 0.2% and the viability, T/C (second compound 0.316 µM, first compound 0.000949 µM) was 92.1%. It also gave a viability, T/C (second compound 0.316 µM, first compound 0.003 µM) of 93.2%, a viability, T/C (second compound 0.316 µM, first compound 0.00949 µM) of 42.6% and a viability, T/C (second compound 0.316 µM, first compound 0.03 µM) of 0.13%. For the same molecule, the viability, T/C (second compound 0.316 µM, first compound 0.0949 µM) was 0.04%, the viability, T/C (second compound 0.316 µM, first compound 0.3 µM) was 0.12% and the viability, T/C (second compound 1 µM, first compound 0.000949 µM) was 102%. For the same molecule, the viability, T/C (second compound 1 µM, first compound 0.003 µM) was 100%, the viability, T/C (second compound 1 µM, first compound 0.00949 µM) was 30.6% and the viability, T/C (second compound 1 µM, first compound 0.03 µM) was 0.08%. The viability, T/C (second compound 1 µM, first compound 0.0949 µM) was 0.05%, the viability, T/C (second compound 1 µM, first compound 0.3 µM) was 0.12% and the viability, T/C (second compound 3.16 µM, first compound 0.000949 µM) was 84.5%. For the same molecule, the viability, T/C (second compound 3.16 µM, first compound 0.003 µM) was 88.8%, the viability, T/C (second compound 3.16 µM, first compound 0.00949 µM) was 27.5% and the viability, T/C (second compound 3.16 µM, first compound 0.03 µM) was 0.1%. It also gave a viability, T/C (second compound 3.16 µM, first compound 0.0949 µM) of 0.13%, a viability, T/C (second compound 3.16 µM, first compound 0.3 µM) of 0.12% and a viability, T/C (second compound 10 µM, first compound 0.000949 µM) of 66.5%. It also gave a viability, T/C (second compound 10 µM, first compound 0.003 µM) of 84.2%, a viability, T/C (second compound 10 µM, first compound 0.00949 µM) of 17.2% and a viability, T/C (second compound 10 µM, first compound 0.03 µM) of 0.18%. It also gave a viability, T/C (second compound 10 µM, first compound 0.0949 µM) of 0.12% and a viability, T/C (second compound 10 µM, first compound 0.3 µM) of 0.18%.
